# Data taken from US20150174068A1, “Apparatus, Composition, and Related Methods for Transdermal Delivery of Active Ingredients” (CURE IP HOLDINGS, LLC, priority 2011, published 2015).
# Where two headings read alike, the source gives them in different places.
# Legend:
# [1] = human, pH 7.4
# [2] = In vitro transdermal caffeine delivery, Franz diffusion cells, excised human epidermis; type: in vitro ADME; conditions: after application of the formulations
# Description: Pre-clinical selection of topical formulations was performed using an in-vitro penetration study through human epidermal membrane, which assesses the percutaneous absorption profiles of applied drugs. The method is based on the use of excised human skin as a membrane in a diffusion system that simulates in-vivo skin conditions. By analyzing the amount of the drug reaching the receptor solution, the penetration profile of the drug in the skin can be assessed and used as a tool to determine the feasibility of formulations for subsequent development. Embodiments of the transdermal compositions were tested in an in vitro penetration study through human epidermis as a testing membrane to simulate topical drug delivery. In particular, excised human epidermis was utilized to assess the penetration profiles of caffeine. Two transdermal compositions were tested: Formulation A and Formulation B. […] Formulation A was tested with and without occlusion. Parafilm was applied for occlusion tests, and the samples were kept under occlusion during the period of the study. […] The materials for the assays were: […] Formulation A; and Formulation B. […] Therefore, each formulation contained radioactive caffeine of 50 μCi/mL. The mixtures were stored at a 4° C. refrigerator after preparation. […] The amount of radioactive caffeine was analyzed from the receptor fluid samples. […]
amount of active ingredient that penetrated the epidermis ([1]; 5 %),Compound,amount of active ingredient that penetrated the epidermis [1],time to penetration of caffeine through the epidermis into the receptor chamber [2] [min]
,"CC(=O)O[C@H]1C(=O)[C@@]2(C)[C@H]([C@H](OC(=O)c3ccccc3)[C@]3(O)C[C@H](OC(=O)[C@H](O)[C@@H](NC(=O)c4ccccc4)c4ccccc4)C(C)=C1C3(C)C)[C@]1(OC(C)=O)CO[C@@H]1C[C@@H]2O [Paclitaxel, paclitaxel]",approximately 0.5%,
Greater than 2%,C[C@]12CC[C@@H]3c4ccc(O)cc4CC[C@H]3[C@@H]1CC[C@@H]2O [estradiol],,
Approximately 1%,Nc1nc2ncc(CNc3ccc(C(=O)N[C@@H](CCC(=O)O)C(=O)O)cc3)nc2c(=O)[nH]1 [folic acid],,

Compound,amount of active ingredient that penetrated the epidermis ([1]; 5 %),amount of active ingredient that penetrated the epidermis [1],time to penetration of caffeine through the epidermis into the receptor chamber [2] [min]
Cn1c(=O)c2c(ncn2C)n(C)c1=O [caffeine],Greater than 3%,greater than 1%,≤ 3
